The values below come from ChEMBL document CHEMBL3286181, “Pyridopyrimidinone inhibitors of HIV-1 RNase H” (Eur J Med Chem, 2014).

The structures appear in SMILES notation. ≈ marks a conversion by molar mass, not a printed value. Calls of active or inactive are those of the source. The calls are words filed in the database; no cut-off is given here.

Data set [1] concerns the target Human immunodeficiency virus type 1 reverse transcriptase (Human immunodeficiency virus 1, UniProt Q72547). Description: Inhibition of HIV1 reverse transcriptase RNase-H activity using dATP, dCTP, dTTP, [8-3H(N)]-dGTP, oligo1, oligo 2, oligo 3 as substrate preincubated for 30 mins followed by substrate addition measured after 90 mins.
The target of data set [2] is T1, Human immunodeficiency virus type 1 integrase (Human immunodeficiency virus 1, UniProt Q7ZJM1). Description: Inhibition of recombinant HIV1 integrase bound with donor DNA-SPA beads using [3H] target DNA as substrate assessed as strand transfer activity preincubated for 60 mins followed by substrate addition measured after 25 to 45 mins.
The subject of another data set is Rattus norvegicus. Description: Dose normalized AUC in Sprague-Dawley (CD) rat at 1 mg/kg, iv. Also on record: dose 1 mg/kg, route intravenous. Format: ADME, organism-based. Conditions: in vivo.
Data set [3] has as its target Human immunodeficiency virus type 1 reverse transcriptase (Human immunodeficiency virus 1) (UniProt Q72547). Description: Inhibition of HIV1 reverse transcriptase DNA polymerase activity up to 10 uM.
The nature of data set [4]: Permeability across MDCK cells. It is filed as ADME, cell-based, Canis lupus familiaris. The conditions noted are these: dog, read-out: permeability.
A short description of data set [5]: Half life in Sprague-Dawley (CD) rat at 1 mg/kg, iv and 5 mg/kg, po. It is filed as ADME, organism-based. Conditions: in vivo.
The nature of data set [6]: Clearance in Sprague-Dawley (CD) rat at 1 mg/kg, iv relative to hepatic blood flow. It is filed as ADME, organism-based, Liver. Also noted: dose 1 mg/kg, route intravenous. Conditions: in vivo, read-out: CLH.
In data set [7] the test system is Human immunodeficiency virus. As to the kind of experiment: microbe, parasite or virus in culture. Conditions: Human immunodeficiency virus 1, HEK-293T, 48 h.
Description: Antiviral activity against Vesicular stomatitis virus G-pseudotyped HIV infected in human 293T cells transfected with pGJ3-Luci after 2 days by single round infectivity assay
Data set [8] in a line: Solubility of the compound by chemiluminescent nitrogen detection method. Format: physicochemical.
Data set [9] concerns the target T1, Human immunodeficiency virus type 1 integrase. As to the kind of experiment: Inhibition of HIV1 integrase strand transfer activity.
A short description of data set [10]: Inhibition of HIV1 reverse transcriptase strand transfer activity.
Data set [11] concerns the target T1, Human immunodeficiency virus type 1 integrase. As to the kind of experiment: Inhibition of recombinant HIV1 N-terminal His6-tagged integrase expressed in Escherichia coli using 32P-labeled preprocessed HIV-1 U5 DNA as substrate assessed as strand transfer activity after 2 hrs by densitometric analysis.
Data set [12] shares this target. Description: Inhibition of HIV1 integrase bound with donor DNA-SPA beads using 3'-end fluorescein isothiocyanate labeled target DNA as substrate assessed as strand transfer activity incubated prior to substrate addition.

T1 sequence (Q7ZJM1 whole entry): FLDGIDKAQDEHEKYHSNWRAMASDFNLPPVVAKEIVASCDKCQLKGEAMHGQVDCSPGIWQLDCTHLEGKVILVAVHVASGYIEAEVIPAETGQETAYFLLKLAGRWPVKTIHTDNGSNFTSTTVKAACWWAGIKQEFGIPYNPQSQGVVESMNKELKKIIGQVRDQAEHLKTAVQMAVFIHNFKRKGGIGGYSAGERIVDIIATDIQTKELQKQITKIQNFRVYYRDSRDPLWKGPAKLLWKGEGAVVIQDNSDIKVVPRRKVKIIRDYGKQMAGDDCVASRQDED

Usually IC50 stands for the midpoint of a concentration-inhibition curve. Consider `O=c1nc(Nc2ccc(-c3ccncc3)cc2)c2cccnc2n1O`, for which the IC50 in data set [1] amounted to 0.079 µM; in data set [2] it was 1.99 µM. The AUC/dose with Rattus norvegicus is 1942 ng·h/mL/mg. Also, in data set [3], the inhibition entry was “inactive”.
As for `O=c1nc(NCc2ccc(-c3ccncc3)cc2)c2cccnc2n1O`, the values for the IC50 in data set [1] and in data set [2] were 0.016 µM and 1.26 µM, respectively. Moreover, in the data set on Rattus norvegicus, the AUC/dose was found to be 1000 ng·h/mL/mg. The inhibition result in [3] is “inactive”.
A word on the half-life: it is the time in which the quantity being followed falls by half. A higher half-life goes with slow loss. As usually defined, the solubility is the dissolved amount per volume that the medium holds. Take `O=c1nc(Nc2ccc(CN3CCOCC3)cc2)c2cccnc2n1O`: the Papp in data set [4] is 0.5 ×10⁻⁶ cm/s. In [5], this molecule had a half-life of 0.4 h. Besides, the values for the IC50 in data set [1], in [2] and in data set [7] were 0.2 µM, 1.3 µM and 0.16 µM, respectively. In [6], the clearance stood at 70 mL/min/kg. For the same molecule, the solubility in [8] is 503 µM (≈ 178 µg/mL). The AUC/dose in the data set with Rattus norvegicus worked out at 226 ng·h/mL/mg. The inhibition result in [3] was “inactive”.
For the molecule `O=C1Cc2ccccc2C(=O)N1O`, in data set [9], the IC50 is over 5000 µM.
For the molecule `O=c1nc(N2CCC(F)(F)CC2)c2cccnc2n1O`, the IC50 in [1] is 0.501 µM; in data set [2], 7.94 µM. Besides, the inhibition result in [3] is “inactive”.
On to `O=c1nc(NCC2CC2)c2cccnc2n1O`, for which the figures for the half-maximal inhibitory concentration (IC50) in [1], in data set [2] and in data set [7] were 0.398 µM, 3.9 µM and 0.71 µM, respectively.
For the molecule `O=c1nc(NCc2cccc(N3CCOCC3)c2)c2cccnc2n1O`, the results for the IC50 in [1], in data set [2] and in data set [7] were 0.2 µM, 1.99 µM and 0.38 µM, respectively. For the same molecule, the inhibition result in data set [3] is “inactive”.
On to `O=c1nc(NCc2ccc(N3CCOCC3)cc2)c2cccnc2n1O`, for which the Papp in data set [4] turned out to be 1.4 ×10⁻⁶ cm/s. The same molecule had a half-life in data set [5] of 4.5 h. Moreover, the concentration for half-maximal inhibition (IC50) in data set [1] came out at 0.1 µM; in [2], 1.58 µM; in data set [7], 0.47 µM. The clearance in data set [6] is 55 mL/min/kg. The concentration in solution in data set [8] (solubility) was 293 µM (≈ 104 µg/mL). Also, the AUC/dose in the data set with Rattus norvegicus was determined as 713 ng·h/mL/mg. In addition, the inhibition entry in data set [3] was “inactive”.
With `O=C(NCc1ccc(Cl)cc1)c1ncc2cccnc2c1O`, the results for the IC50 in data set [10] and in data set [11] were 0.135 µM and 20 µM, respectively.
Turning to `O=C(NCc1ccc(F)cc1)c1nc(N2CCCCS2(=O)=O)c2cccnc2c1O`, the IC50 in [12] is 10 µM.
For the molecule `O=c1nc(NCc2ccc(-c3ccccc3)cc2)c2cccnc2n1O`, the figures for the IC50 in [1] and in data set [2] were 0.01 µM and 0.63 µM, respectively. Besides, the inhibition result in data set [3] was “inactive”.
Consider `O=c1nc(NCc2cccc(CN3CCOCC3)c2)c2cccnc2n1O`, for which the IC50 in data set [1] was determined as 0.398 µM; in data set [2] it was 15.9 µM; in data set [7], 0.3 µM. Besides, in data set [3], the inhibition entry is “inactive”.
As for `O=c1nc(NCc2ccc(F)cc2)c2cccnc2n1O`, the half-maximal inhibitory concentration (IC50) in data set [1] was found to be 0.158 µM; in data set [2], 3.16 µM. Moreover, the inhibition entry in [3] was “inactive”.
Consider `O=c1nc(Nc2ccc(N3CCOCC3)cc2)c2cccnc2n1O`, for which, in data set [4], the Papp was determined as 0.7 ×10⁻⁶ cm/s. In data set [5], this molecule had a half-life of 2.4 h. The IC50 was 0.05 µM in [1], 0.5 µM in data set [2] and 0.25 µM in data set [7]. Moreover, the clearance in data set [6] stood at 45 mL/min/kg. The molecule further came in with a solubility in data set [8] of 161 µM (≈ 54.6 µg/mL). The AUC/dose in the data set on Rattus norvegicus turned out to be 314 ng·h/mL/mg. Further, the inhibition result in data set [3] was “inactive”.
Consider `O=c1nc(Nc2ccc(-c3ccccc3)cc2)c2cccnc2n1O`, for which the IC50 in data set [2] is 0.79 µM. In the data set on Rattus norvegicus, this molecule had an AUC/dose of 2934 ng·h/mL/mg. The inhibition result in data set [3] was “inactive”.
